Results from ChEMBL document CHEMBL1201862, “PubChem BioAssay data set” (2004).
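Five concentrations, 48 hours, 96-well plates. The concentration for 50% growth inhibition is given as GI50.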 Active and inactive are the calls of the source. No stated cut-off is given here; in the data, active = GI50 up to about 1.1 µM and inactive = higher.

What was measured:
Test in all cases: NCI tumour cell line growth inhibition, 48 h
IGROV-1 = system: IGROV-1
OVCAR-3 = system: OVCAR-3
HL-60 = system: HL-60
SK-MEL-28 = system: SK-MEL-28
SF-295 = system: SF-295
NCI-H522 = system: NCI-H522
A549 = system: A549
M14 = system: M14
ACHN = system: ACHN
SN12C = system: SN12C
K562 = system: K562
DU-145 = system: DU-145
UACC-62 = system: UACC-62
SF-539 = system: SF-539
UO-31 = system: UO-31
MDA-MB-435 = system: MDA-MB-435
RXF 393 = system: RXF 393
HOP-92 = system: HOP-92
SNB-75 = system: SNB-75
A498 = system: A498

Measured: GI50

CN(C)c1ccc([S+]([O-])Nc2ccccc2)cc1 (stereo not given)
inactive: IGROV-1 30 µM | OVCAR-3 > 100 µM | HL-60 28.1 µM | SK-MEL-28 > 100 µM | SF-295 48.8 µM | NCI-H522 13.2 µM | A549 39 µM | M14 38.5 µM | ACHN 29.6 µM | SN12C > 100 µM | K562 28.1 µM | DU-145 > 100 µM | UACC-62 22.5 µM | SF-539 > 100 µM | UO-31 11.1 µM | MDA-MB-435 21.1 µM

c1ccc(-c2sc(-c3cccs3)cc2Cc2cccs2)cc1
inactive: IGROV-1 > 10 µM | HL-60 > 10 µM | SK-MEL-28 > 10 µM | SF-295 > 10 µM | NCI-H522 > 10 µM | A549 > 10 µM | M14 > 10 µM | ACHN > 10 µM | SN12C > 10 µM | K562 > 10 µM | DU-145 > 10 µM | UACC-62 > 10 µM | SF-539 > 10 µM | RXF 393 > 10 µM | HOP-92 > 10 µM | UO-31 > 10 µM | MDA-MB-435 > 10 µM | SNB-75 > 10 µM

CSc1c2c(C)n[nH]c2nn1-c1ccccc1
inactive: OVCAR-3 39.3 µM | HL-60 29.6 µM | SK-MEL-28 > 100 µM | NCI-H522 5.01 µM | A549 > 100 µM | M14 81.7 µM | SN12C > 100 µM | K562 47.5 µM | DU-145 88.3 µM | UACC-62 68.1 µM | SF-539 40.4 µM | RXF 393 30.6 µM | A498 90.8 µM | UO-31 46.7 µM | MDA-MB-435 > 100 µM | SNB-75 > 100 µM

N#CC(=N)c1ncn(CCO)c1NC(=O)C(F)(F)F
inactive: IGROV-1 > 100 µM | OVCAR-3 > 100 µM | HL-60 > 100 µM | SK-MEL-28 > 100 µM | SF-295 > 100 µM | NCI-H522 > 100 µM | A549 > 100 µM | M14 > 100 µM | ACHN > 100 µM | SN12C > 100 µM | K562 > 100 µM | DU-145 > 100 µM | UACC-62 > 100 µM | SF-539 > 100 µM | RXF 393 > 100 µM | A498 > 100 µM | MDA-MB-435 > 100 µM | SNB-75 > 100 µM

O=c1oc2ccccc2c(Nc2ccc3c(c2)S(=O)(=O)c2ccccc2O3)c1[N+](=O)[O-]
inactive: IGROV-1 21.6 µM | OVCAR-3 20.8 µM | HL-60 27.3 µM | SK-MEL-28 18.1 µM | SF-295 24.8 µM | NCI-H522 19.7 µM | A549 28.1 µM | M14 26.2 µM | ACHN 22.1 µM | SN12C 25.6 µM | K562 20.6 µM | DU-145 27.6 µM | UACC-62 14.5 µM | SF-539 25.3 µM | RXF 393 19.5 µM | HOP-92 20 µM | UO-31 33.4 µM | MDA-MB-435 23.4 µM | SNB-75 22 µM

C[Si](C)(C)c1ccc(-c2c3ccc(-c4cc(Br)cc(Br)c4)nc3nc3nc(-c4cc(Br)cc(Br)c4)ccc23)cc1
inactive: OVCAR-3 > 100 µM | SK-MEL-28 > 100 µM | SF-295 > 100 µM | NCI-H522 > 100 µM | A549 > 100 µM | M14 > 100 µM | ACHN > 100 µM | SN12C > 100 µM | DU-145 > 100 µM | UACC-62 > 100 µM | HOP-92 > 100 µM | A498 > 100 µM | UO-31 > 100 µM | MDA-MB-435 > 100 µM | SNB-75 > 100 µM

O=[N+]([O-])C(=C(N1CCOCC1)N1CCOCC1)/C(Cl)=C(\Cl)[N+](=O)[O-]
inactive: IGROV-1 1.41 µM | OVCAR-3 4.54 µM | SK-MEL-28 14.3 µM | SF-295 18 µM | NCI-H522 1.48 µM | A549 23.1 µM | M14 6.35 µM | ACHN 6.31 µM | SN12C 2.01 µM | K562 3.69 µM | DU-145 7.45 µM | UACC-62 16.6 µM | SF-539 11.6 µM | RXF 393 1.77 µM | A498 20.2 µM | UO-31 6.71 µM | MDA-MB-435 10.3 µM | SNB-75 19.4 µM

CC12CCCC(O)C1CCC1=CC3(CCC12)SCCS3 (stereo not given)
inactive: IGROV-1 > 10 µM | OVCAR-3 > 10 µM | SK-MEL-28 > 10 µM | SF-295 > 10 µM | NCI-H522 > 10 µM | A549 > 10 µM | M14 > 10 µM | ACHN > 10 µM | SN12C > 10 µM | K562 > 10 µM | DU-145 > 10 µM | UACC-62 > 10 µM | HOP-92 > 10 µM | MDA-MB-435 > 10 µM | SNB-75 > 10 µM
